In patent US11384182B2, “Supramolecular polymer composition and method of preparation thereof” (City University of Hong Kong, priority 2019, dated 2022):

Assays:
[1] = release of carvacrol in air by weight loss; assay type: physicochemical; details: at 100 days
Method: The amount of carvacrol, i.e. the hydrophobic material in the composition, released in air was calculated by weight loss and is illustrated in FIG. 8C. The amount of carvacrol released in water was monitored by UV-vis scanning spectrophotometer (Shimadzu 1700), wherein

[2] = cited from earlier work

## Cc1ccc(C(C)C)cc1O [carvacrol]
[1]
  reduction of the original mass: approximately 40%
[2]
  saturation concentration in water: about 3 mM
